Experimental data from the supplement of paper PMC10307832.

How the values were obtained:
Test in all cases: relative viability (nuclei count vs DMSO), 5 days (fraction); higher = more cells survive
[1] = compound: CN1CCC(CNc2ccc3ncc(-c4cccc(OC(F)(F)F)c4)n3n2)CC1 [SGI-1776] + CC1(C)CCC(c2ccc(Cl)cc2)=C(CN2CCN(c3ccc(C(=O)NS(=O)(=O)c4ccc(N[C@H](CCN5CCOCC5)CSc5ccccc5)c(S(=O)(=O)C(F)(F)F)c4)cc3)CC2)C1 [Navitoclax] (partner 0.5 µM)
Method in brief: (§1)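 Lung cancer cell lines were pin-tool dosed in 1536-well plates on the day after seeding, with either a lone drug or a fixed anchor-drug dose plus five library-drug doses (not always all listed) in √10 steps. Nuclei were counted on 4× images after 5 days. Relative viability is the ratio of treated-well to vehicle-well nuclei counts, with each value a median of duplicate plates.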

[2] = compound: C1COCCN1C2=NC(=NC3=C2OC4=C3C=CC=N4)C5=CC(=CC=C5)NC(=O)C6=CN=C(C=C6)N + CC1(C)CCC(c2ccc(Cl)cc2)=C(CN2CCN(c3ccc(C(=O)NS(=O)(=O)c4ccc(N[C@H](CCN5CCOCC5)CSc5ccccc5)c(S(=O)(=O)C(F)(F)F)c4)cc3)CC2)C1 [Navitoclax] (partner 0.5 µM)
Method in brief: as §1

[3] = compound: Nc1ccccc1NC(=O)c1ccc(CNC(=O)OCc2cccnc2)cc1 [Entinostat] + Nc1nc2[nH]cc(CCc3ccc(C(=O)N[C@@H](CCC(=O)O)C(=O)O)cc3)c2c(=O)[nH]1 [Pemetrexed] (partner 0.2 µM)
Method in brief: as §1

[4] = compound: CN1CCC(CNc2ccc3ncc(-c4cccc(OC(F)(F)F)c4)n3n2)CC1 [SGI-1776] + CC(=O)c1c(C)c2cnc(Nc3ccc(N4CCNCC4)cn3)nc2n(C2CCCC2)c1=O [Palbociclib] (partner 0.5 µM)
Method in brief: as §1

| Cell Line | relative viability ([1]; first compound 0.08 µM) | relative viability ([1]; first compound 0.8 µM) | relative viability ([1]; first compound 2.53 µM) | relative viability ([1]; first compound 8 µM) | relative viability ([2]; first compound 0.02 µM) | relative viability ([2]; first compound 0.06325 µM) | relative viability ([2]; first compound 0.2 µM) | relative viability ([2]; first compound 0.6325 µM) | relative viability ([2]; first compound 2 µM) | relative viability ([3]; first compound 0.02 µM) | relative viability ([3]; first compound 0.06325 µM) | relative viability ([3]; first compound 0.2 µM) | relative viability ([3]; first compound 0.6325 µM) | relative viability ([3]; first compound 2 µM) | relative viability ([4]; first compound 0.08 µM) | relative viability ([4]; first compound 0.8 µM) | relative viability ([4]; first compound 2.53 µM) | relative viability ([4]; first compound 8 µM) |
| --- | --- | --- | --- | --- | --- | --- | --- | --- | --- | --- | --- | --- | --- | --- | --- | --- | --- | --- |
| HOP-62 | 1.09 | 1.11 | 1.09 | 0.967 | 1.05 | 1.32 | 1.27 | 1.01 | 0.735 | 0.23 | 0.301 | 0.286 | 0.229 | 0.188 | 0.548 | 0.428 | 0.423 | 0.379 |
| NCI-H2126 | 0.809 | 0.877 | 0.846 | 0.743 | 0.872 | 0.828 | 0.9 | 0.839 | 0.763 | 0.71 | 0.687 | 0.674 | 0.405 | 0.306 | 0.389 | 0.334 | 0.361 | 0.331 |
| NCI-H1793 | 0.358 | 0.52 | 0.482 | 0.31 | 0.398 | 0.523 | 0.416 | 0.655 | 0.375 | 0.984 | 1.08 | 1.08 | 0.572 | 0.316 | 0.353 | 0.335 | 0.311 | 0.298 |
| RERF-LC-KJ | 0.936 | 1.04 | 0.937 | 0.789 | 0.966 | 0.995 | 0.759 | 1 | 0.712 | 0.494 | 0.486 | 0.474 | 0.408 | 0.319 | 1.01 | 1.06 | 1.07 | 0.748 |
| H3255 | 0.525 | 0.46 | 0.543 | 0.193 | 0.54 | 0.553 | 0.533 | 0.421 | 0.467 | 0.586 | 0.57 | 0.549 | 0.414 | 0.378 | 0.363 | 0.34 | 0.328 | 0.311 |
| EMC-BAC-2 | 1.23 | 1.22 | 1.16 | 1.1 | 1.21 | 1.28 | 1.26 | 1.12 | 0.984 | 0.434 | 0.432 | 0.416 | 0.361 | 0.341 | 0.537 | 0.52 | 0.518 | 0.514 |
| CAL-12T | 1.3 | 1.1 | 1.29 | 1.09 | 1.06 | 1.41 | 1.23 | 1.11 | 0.883 | 1.17 | 1.09 | 1.49 | 1.21 | 0.676 | 0.425 | 0.518 | 0.641 | 0.418 |
| SK-MES-1 | 1.35 | 1.23 | 1.27 | 1.15 | 1.42 | 1.22 | 1.17 | 0.931 | 0.787 | 0.929 | 1.01 | 1.04 | 0.944 | 0.577 | 0.379 | 0.315 | 0.327 | 0.241 |
